# BindingDB's records for patent US12570614 (Glaxosmith Kline, 2026)
# Biological target: Tyrosine-protein kinase JAK2 (Homo sapiens, UniProt O60674)
# Test: Enzyme Screening Assay
# Experimental: Alphascreen phosphotyrosine acceptor beads followed by streptavidin donor beads at a concentration of 1/100 in stop buffer were added to each well under subdued light and incubated for 2-3 hours. The Alphascreen plates were read on a Packard Fusion Alpha instrument
# Chain of Tyrosine-protein kinase JAK2 (O60674 whole entry): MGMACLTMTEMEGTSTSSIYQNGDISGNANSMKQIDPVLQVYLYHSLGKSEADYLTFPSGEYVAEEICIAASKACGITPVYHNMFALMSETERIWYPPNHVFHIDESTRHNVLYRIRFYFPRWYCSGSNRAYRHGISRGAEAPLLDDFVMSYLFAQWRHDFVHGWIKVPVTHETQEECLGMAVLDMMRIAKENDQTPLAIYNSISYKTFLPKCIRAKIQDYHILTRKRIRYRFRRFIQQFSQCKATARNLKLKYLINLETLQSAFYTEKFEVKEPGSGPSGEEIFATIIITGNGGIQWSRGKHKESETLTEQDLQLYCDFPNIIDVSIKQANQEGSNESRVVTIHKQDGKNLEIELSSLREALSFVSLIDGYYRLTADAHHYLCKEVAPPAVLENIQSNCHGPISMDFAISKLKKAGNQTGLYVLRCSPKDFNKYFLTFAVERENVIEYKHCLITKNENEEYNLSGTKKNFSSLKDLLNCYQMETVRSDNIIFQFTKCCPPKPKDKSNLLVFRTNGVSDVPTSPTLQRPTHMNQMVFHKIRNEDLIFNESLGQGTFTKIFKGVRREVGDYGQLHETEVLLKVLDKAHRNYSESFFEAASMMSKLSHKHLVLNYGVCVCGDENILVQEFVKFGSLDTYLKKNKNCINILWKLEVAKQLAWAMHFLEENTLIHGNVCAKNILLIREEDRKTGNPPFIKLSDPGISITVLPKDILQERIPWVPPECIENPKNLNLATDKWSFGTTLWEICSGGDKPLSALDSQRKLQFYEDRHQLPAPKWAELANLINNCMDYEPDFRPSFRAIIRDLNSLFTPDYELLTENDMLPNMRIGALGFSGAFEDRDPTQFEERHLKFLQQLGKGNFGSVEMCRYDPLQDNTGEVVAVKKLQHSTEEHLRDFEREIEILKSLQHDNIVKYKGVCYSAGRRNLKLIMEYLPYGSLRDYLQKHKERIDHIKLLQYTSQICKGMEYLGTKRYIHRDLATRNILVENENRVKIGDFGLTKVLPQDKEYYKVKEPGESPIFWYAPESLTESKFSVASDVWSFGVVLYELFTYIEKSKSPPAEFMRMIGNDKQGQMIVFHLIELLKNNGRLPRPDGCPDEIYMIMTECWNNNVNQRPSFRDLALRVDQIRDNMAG
smiles,measurement,value
"CCN1CCC(OC2CCC(Nc3nccc(-c4ccc(C(=O)NCC#N)cc4)n3)CC2)CC1 (stereo unspecified) [US12570614, Compound 80]",IC50,< 1 µM
